These results are taken from PMC11934087, “Rational Design of Stapled Covalent Peptide Modifiers of Oncoprotein E6 from Human Papillomavirus” (ACS Chemical Biology, 2025).

Data set [1] can be described thus: Circular dichroism spectroscopy, percent helicity. The note with it: 50 μM peptide, 10 mM phosphate buffer pH 7.2, 0.5% DMSO, 20 °C. In kind it is physicochemical. The procedure: To determine the secondary structure of peptides 1–11, CD was measured in an aqueous solution. […] The molar ellipticity ([θ]) at 222 nm was used to estimate the percent helicity of peptides in aqueous solutions and enable direct comparison of the helical content of peptides 1–11 (Figure 5C).[51],[52]
CD measurements were acquired on an Olis DSM17 CD spectrophotometer. Cells with a path length of 2 mm were used. Peptide solutions at 50 μM were prepared in 10 mM phosphate buffer (500 μL; pH = 7.2) containing 0.5% of DMSO, and exact concentrations were determined using fluorescein absorbance at 494 nm and a molar extinction coefficient of 82,000 cm^–1 M^–1.[59] Blank solutions of buffer without peptide were prepared for background subtraction. Scans were performed at 20 °C from 200 to 260 nm with increments of 1 nm, bandwidth of 2 nm, and a 5 s integration time. […] Helical content for peptides was calculated using a previously described method[52] that assumes that the peptide population only exists in two states, helical and random coil, and that the ellipticity contribution from the random coil population is negligible at 222 nm. […] This was calculated via the equation [θobs]222 = 43,000(1 – [x/n]), where x is the factor accounting for end effects, for which 2.5 was used, and n is the number of residues.[52]

Data set [2] deals with T1, GST-E6 (GST-tagged HPV16 E6 protein) (Human papillomavirus type 16, UniProt P03126).
T1 construct: host or cells: E. coli BL21
The experiment in a line: Noncompetitive fluorescence polarization (FP) binding assay. More on the design: species or system Human Papillomavirus (HPV-16). The protocol:
An N-terminal carboxyfluorescein was included for FP analysis of binding affinity for both the natural backbone and the stapled peptides.
For noncompetitive FP experiments, varying concentrations of GST-E6 protein (38 μM; 10 point 2-fold serial dilution) were incubated with 30 nM fluorescently labeled peptides in buffer (10 μL total volume; 50 mM Tris, 200 mM NaCl, 1 mM DTT, 0.1% [v/v] Trition X-100) in black 384-well plates. For competitive FP experiments, 100 nM GST-E6 was incubated with 30 nM fluorescently labeled noncovalent peptide and varying concentrations (20 μM; 3-fold serial dilution) of covalent peptide in buffer (20 μL) with a final DMSO content of 0.5% [v/v]. Negative control (polarization reference; 30 nM fluorescent peptide, no protein) and blank reference (buffer alone) were included in triplicate for G-factor calibration. Sample plates were centrifuged (1 min, 500g) and incubated for 30 min at RT. Following incubation, FP at equilibrium was measured on a Tecan M1000 microplate reader (ex = 470 nm, em = 525; gain optimized, 200 flashes, 300 ms settle time, G-factor reference value 30 mP). Measured polarizations were fitted to a sigmoidal dose–response curve using GraphPad Prism software to generate KD values.
On the technique in general: Polarisation of emitted light reports the rotation of a fluorescent probe.

Data set [3] has as its target bovine α-chymotrypsin (Bos taurus, UniProt P00766). Put plainly: in vitro. The note with it: 50 μM peptide, 50 nM bovine α-chymotrypsin, pH 7.5, room temp, 4 h; HPLC. The protocol: (§1) Chymotrypsin was chosen due to its substrate selectivity for peptides containing hydrophobic side chains, including leucine, making the LxxLL motif a well-suited substrate for proteolytic cleavage by this protease.[54]
(§2) For each time point, a 50 μL aliquot was removed from the reaction mixture and quenched with 40 μL of 0.5% [v/v] trifluoroacetic acid in acetonitrile. Quenched samples were subsequently analyzed by analytical reverse-phase HPLC, and the remaining undigested peptide was quantified by integration of AUC. A plot of percent peptide remaining vs time was fit to a one-phase exponential decay to calculate half-life using GraphPad Prism software.

Data set [4] can be described thus: in vitro. Conditions: bovine α-chymotrypsin (50 nM), pH 7.5. The procedure: as §1, §2
Data set [5] can be described thus: Glutathione reactivity assay (HPLC time course). The note with it: 100 μM peptide, glutathione 10 equiv (1 mM), 50 mM Tris, 200 mM NaCl, 1% DMSO, 37 °C; HPLC 280 nm, GSH adduct peak area; n = 3. The protocol: To evaluate the reactivity toward off-target thiols, the acrylamide, bromoacetamide, and chloroacetamide covalent peptides were exposed to glutathione (10 equiv) in an HPLC time course assay over 96 h (Figure 4A). Here, a set of nonfluorescent peptides (2b, 3b, and 4b) were synthesized with an N-terminal tryptophan for quantification through absorbance measurements. Glutathione is the most abundant thiol in human cells,[40] and time point measurements were obtained by quenching reactions with cold acetonitrile containing TFA (0.1%) and 5-carboxyfluorescein as an internal standard.
Covalent peptides (100 μM) were diluted from 10 mM DMSO stock solutions (1% final DMSO content) and incubated in buffer (500 μL total volume; 50 mM Tris, 200 mM NaCl) with glutathione (10 equiv, 1 mM) at 37 °C. To quench the reaction, 10 μL of the reaction mixture was added to 100 μL of cold acetonitrile containing 0.1% TFA [v/v] and 10 μM fluorescein, included as an internal standard. Reaction mixtures were first analyzed by LCMS after 1 h of incubation to assign the glutathione adduct peak by comparison to mixtures quenched immediately following peptide addition. […] The AUC of the reacted covalent peptide was normalized to the AUC of the fluorescein standard. These values were plotted and fitted with nonlinear regression using GraphPad Prism software.

Data set [6] can be described thus: Off-target reactivity with DTT. Conditions: DTT 1 mM. In kind it is physicochemical.

Where a SMILES comes first, the peptide text is derived from it. Bridges are numbered along the chain shown (N, C = ends). [ ]: non-standard residue; d: D form. The star is where a group is joined. 5FAM = O=C1OC2(c3ccc(O)cc3Oc3cc(O)ccc32)c2ccc(C(=O)*)cc21; S5 = C=CCCC[C@](C)(N)C(=O)O; Dap = NC[C@H](N)C(=O)O; BrAc = O=C(CBr)*; βAla = NCCC(=O)O

T1 sequence (P03126 whole entry): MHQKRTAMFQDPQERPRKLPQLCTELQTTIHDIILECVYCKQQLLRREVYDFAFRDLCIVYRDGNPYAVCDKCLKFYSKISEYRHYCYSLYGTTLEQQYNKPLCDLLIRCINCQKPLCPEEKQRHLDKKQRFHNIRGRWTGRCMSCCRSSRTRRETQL

`CC(C)C[C@H](NC(=O)[C@H](CC(C)C)NC(=O)[C@H](CCC(=O)O)NC(=O)[C@]1(C)CCCC=CCCC[C@](C)(NC(=O)[C@H](C)NC(=O)[C@H](C)NC(=O)[C@H](C)NC(=O)CCNC(=O)c2ccc3c(c2)C(=O)OC32c3ccc(O)cc3Oc3cc(O)ccc32)C(=O)N[C@@H](CC(C)C)C(=O)N[C@@H]([C@@H](C)O)C(=O)N[C@@H](CC(C)C)C(=O)N1)C(=O)NCC(N)=O` [compound 6] ({5FAM-βAla}-AAA[S5]LTL[S5]ELLG-NH2; staple 4-8): in data set [1], the “Percent helicity from molar ellipticity at 222 nm (CD)” value amounted to 22%. Also, in data set [2], the Kd (commonly the constant that tells how readily two partners part at equilibrium) was no less than 38000 nM.

With `CC(C)C[C@H](NC(=O)[C@H](CC(C)C)NC(=O)[C@H](CCC(=O)O)NC(=O)[C@H](CCC(N)=O)NC(=O)[C@H](CC(C)C)NC(=O)[C@@H](NC(=O)[C@H](CC(C)C)NC(=O)[C@H](CCC(=O)O)NC(=O)[C@H](C)NC(=O)[C@H](C)NC(=O)[C@H](C)NC(=O)CCNC(=O)c1ccc2c(c1)C(=O)OC21c2ccc(O)cc2Oc2cc(O)ccc21)[C@@H](C)O)C(=O)NCC(N)=O` [compound 1] ({5FAM-βAla}-AAAELTLQELLG-NH2), the “degradation by chymotrypsin within 4 h” value in data set [3] is listed as “complete degradation”. In data set [4], the half-life (usually the time needed for the level to fall by half in the phase considered) at 50 μM turned out to be 47 min. Moreover, in data set [2], the EC50 (as a rule, the concentration giving half of the maximal effect) came to 2590 nM and the Kd turned out to be 2590 nM.

In the case of `CC(=O)N[C@@H](Cc1c[nH]c2ccccc12)C(=O)NCCC(=O)N[C@@H](C)C(=O)N[C@@H](C)C(=O)N[C@@H](C)C(=O)N[C@@H](CCC(=O)O)C(=O)N[C@@H](CC(C)C)C(=O)N[C@H](C(=O)N[C@@H](CC(C)C)C(=O)N[C@@H](CCC(N)=O)C(=O)N[C@@H](CCC(=O)O)C(=O)N[C@@H](CC(C)C)C(=O)N[C@@H](CC(C)C)C(=O)N[C@@H](CNC(=O)CBr)C(N)=O)[C@@H](C)O` [3b] (Ac-W[βAla]AAAELTLQELL[Dap](BrAc)-NH2), in data set [5], the “t1/2 of reaction with glutathione” value amounted to 8.5 min. The “half-life of off-target reaction with DTT” value in data set [6] came to 2.1 min.
